Data on six molecules can be found in ChEMBL document CHEMBL4354836, “Heterotrimeric G Proteins as Therapeutic Targets in Drug Discovery” (J Med Chem, 2020).

Bridge positions count the residues as written; N and C are the ends. Square brackets hold non-standard residues; d marks the D form. Peptide text beside a SMILES is read from it. Leu(3R-O(AcLeu(3R-OH))) = CC(=O)N[C@H](C(=O)O[C@H](C(C)C)[C@H](N)C(=O)O)[C@H](O)C(C)C; NMeT = CN[C@H](C(=O)O)[C@@H](C)O; dPhLac = O=C(O)[C@H](O)Cc1ccccc1; NMeA = CN[C@@H](C)C(=O)O; NMeDha = C=C(NC)C(=O)O

What is called IC50 is the concentration needed to halve the response being measured.

For assay [1], the target named is Guanine nucleotide-binding protein G(I)/G(S)/G(T) subunit beta-1/gamma-2 (Homo sapiens, UniProt P59768+P62873). As to the kind of experiment: Inhibition of G-protein beta1gamma2 (unknown origin) by flow cytometry. It is filed as protein-complex assay. A general note: In flow cytometry, cells or beads pass a laser one at a time.
Assay [2] deals with T1, GNAQ/GNA11 (Homo sapiens, UniProt P50148+P29992).
T1 sequence (P50148 whole entry): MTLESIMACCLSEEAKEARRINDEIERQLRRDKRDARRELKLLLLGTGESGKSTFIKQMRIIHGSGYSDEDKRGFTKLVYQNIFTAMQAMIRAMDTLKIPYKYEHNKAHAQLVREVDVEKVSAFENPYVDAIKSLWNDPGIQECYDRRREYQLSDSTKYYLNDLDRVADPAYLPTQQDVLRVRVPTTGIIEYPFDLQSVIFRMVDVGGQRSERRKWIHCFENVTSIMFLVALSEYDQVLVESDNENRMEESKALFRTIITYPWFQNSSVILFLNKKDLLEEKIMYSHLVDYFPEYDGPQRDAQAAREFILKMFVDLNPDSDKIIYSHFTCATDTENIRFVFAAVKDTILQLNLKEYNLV
T1 sequence (P29992 whole entry): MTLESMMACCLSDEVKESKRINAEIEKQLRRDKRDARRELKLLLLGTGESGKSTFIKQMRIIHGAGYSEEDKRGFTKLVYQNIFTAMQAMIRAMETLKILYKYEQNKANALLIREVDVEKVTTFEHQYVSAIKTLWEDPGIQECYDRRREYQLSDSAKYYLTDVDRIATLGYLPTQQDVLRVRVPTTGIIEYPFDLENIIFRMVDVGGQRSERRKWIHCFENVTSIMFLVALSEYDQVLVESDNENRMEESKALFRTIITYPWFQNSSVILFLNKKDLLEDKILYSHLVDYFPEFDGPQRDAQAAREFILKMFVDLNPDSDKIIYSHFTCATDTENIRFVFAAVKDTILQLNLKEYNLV
As to the kind of experiment: Inhibition of G-alphaq/11 in human platelet rich plasma assessed as inhibition of ADP-mediated calcium ion mobilization.

Assay [3] concerns the target T1, GNAQ/GNA11. Description: Inhibition of G-alphaq/11 in human platelet rich plasma assessed as inhibition of ADP-mediated platelet aggregation.
A short description of assay [4]: Inhibition of recombinant G-alpha subunit (unknown origin) assessed as inhibition of GDP release. Details: species or system Homo sapiens.

Chain of Guanine nucleotide-binding protein G(I)/G(S)/G(T) subunit beta-1/gamma-2 (P59768 2-71 limits assumed): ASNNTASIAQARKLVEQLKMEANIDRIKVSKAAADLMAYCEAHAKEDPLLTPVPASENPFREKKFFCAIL
Chain of Guanine nucleotide-binding protein G(I)/G(S)/G(T) subunit beta-1/gamma-2 (P62873 2-340 limits assumed): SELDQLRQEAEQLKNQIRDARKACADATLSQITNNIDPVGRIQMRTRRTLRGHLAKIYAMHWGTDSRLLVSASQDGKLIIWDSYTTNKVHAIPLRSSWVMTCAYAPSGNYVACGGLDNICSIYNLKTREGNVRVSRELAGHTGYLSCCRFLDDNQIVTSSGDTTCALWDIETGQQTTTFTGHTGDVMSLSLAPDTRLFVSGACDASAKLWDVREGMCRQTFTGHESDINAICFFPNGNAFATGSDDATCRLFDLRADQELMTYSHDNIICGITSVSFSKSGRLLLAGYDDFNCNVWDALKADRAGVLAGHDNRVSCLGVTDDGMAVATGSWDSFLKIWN

`O=C(O)C1CCCCC1c1c2ccc(=O)cc-2oc2cc(O)ccc12` (configuration not stated) yielded an IC50 in assay [1] of more than 300000 nM.

In assay [1], `O=C(O)C1CC23C(Cl)C(Cl)=C(Cl)C(Cl)C2(CC1c1c2ccc(=O)c(O)c-2oc2c(O)c(O)ccc12)C3(Cl)Cl` (configuration not stated) gave an IC50 of 250 nM.

Regarding `O=C1OC2(c3ccccc31)c1ccc(O)c(O)c1Oc1c2ccc(O)c1O`, in assay [1], the IC50 worked out at 200 nM.

The molecule `O=C(O)C1CCCCC1c1c2ccc(=O)c(O)c-2oc2c(O)c(O)ccc12` (configuration not stated) displayed an IC50 in assay [1] of 200 nM.

Regarding `C=C1C(=O)N[C@@H](C)C(=O)N(C)[C@@H](C)C(=O)N[C@@H]([C@H](OC(=O)[C@@H](NC(C)=O)[C@H](O)C(C)C)C(C)C)C(=O)N(C)[C@@H]([C@@H](C)OC)C(=O)O[C@H](C)[C@H](NC(C)=O)C(=O)O[C@H](Cc2ccccc2)C(=O)N1C` (Ac-T[dPhLac][NMeDha]A[NMeA][Leu(3R-O(AcLeu(3R-OH)))][NMeT](Me); ester 1-C), the IC50 at GNAQ/GNA11 [2] and at GNAQ/GNA11 [3] was 100 to 1000 nM each time.

For `Cc1ccc(C(=O)Nc2ccc(S(=O)(=O)O)c3cc(S(=O)(=O)O)cc(S(=O)(=O)O)c23)cc1NC(=O)c1cccc(NC(=O)Nc2cccc(C(=O)Nc3cc(C(=O)Nc4ccc(S(=O)(=O)O)c5cc(S(=O)(=O)O)cc(S(=O)(=O)O)c45)ccc3C)c2)c1` [SURAMIN], in assay [4], the IC50 was determined as 240 nM.
